In ChEMBL document CHEMBL5052843, “Inhibitors of apol1 and methods of using same” (2020):

Key:
[1] = test system: Trypanosoma brucei brucei; experiment: Antitrypanosomal activity against Trypanosoma brucei brucei assessed as trypanosome lysis using recombinant APOL1 protein G1 variant and measured by Alamar blue based fluorescene assay; type: functional, organism-based
Apolipoprotein L1 = Apolipoprotein L1 (Homo sapiens, UniProt O14791); experiment: Inhibition of APOL1 G1 variant in human HEK293-T-REx cells measured by Thallium assay; type: cell-based

Row | Structure (SMILES) | IC50 [1] | IC50 (Apolipoprotein L1)
1 | O=C(CCc1c(-c2ccccc2)[nH]c2c(F)cccc12)N[C@@H]1C(=O)NC[C@H]1O | < 250 nM | < 250 nM
2 | O=C(CCc1c(-c2ccccc2)[nH]c2cc(F)c(F)cc12)N[C@@H]1C(=O)NC[C@H]1O | < 250 nM | < 250 nM
3 | COc1ccc(-c2[nH]c3ccccc3c2CCC(=O)N[C@@H]2C(=O)NC[C@H]2O)cc1 | < 250 nM | < 250 nM
4 | O=C(CCc1c(-c2cc(F)cc(F)c2)[nH]c2c(F)cc(F)cc12)N[C@@H]1C(=O)NC[C@H]1O | 250 nM | < 250 nM
5 | O=C(CCc1c(-c2ccccc2)[nH]c2c(F)c(F)c(F)cc12)N[C@@H]1C(=O)NC[C@H]1O | < 250 nM | < 250 nM
6 | Cc1cc(-c2[nH]c3ccccc3c2CCC(=O)N[C@@H]2C(=O)NC[C@H]2O)ccc1F | < 250 nM | < 250 nM
7 | O=C(CCc1c(-c2ccc(F)cc2)[nH]c2ccccc12)N[C@@H]1C(=O)NC[C@H]1O | < 250 nM | < 250 nM
8 | O=C(CCc1c(-c2ccc(OC(F)(F)F)cc2)[nH]c2ccccc12)N[C@@H]1C(=O)NC[C@H]1O | < 250 nM | < 250 nM
9 | O=C(CCc1c(-c2ccc(F)cc2)[nH]c2c(F)c(F)ccc12)N[C@@H]1C(=O)NC[C@H]1O | < 250 nM | < 250 nM
10 | O=C1NC[C@@H](O)[C@@H]1NC(=O)C(F)(F)Cc1c(-c2ccc(F)cc2)[nH]c2c(F)cc(F)cc12 | < 250 nM | < 250 nM
11 | O=C(CCc1c(-c2ccc(C(F)(F)F)cc2)[nH]c2ccccc12)N[C@@H]1C(=O)NC[C@H]1O | < 250 nM | < 250 nM
12 | O=C(CCc1c(-c2ccccc2)[nH]c2cccc(F)c12)N[C@@H]1C(=O)NC[C@H]1O | 250 nM | < 250 nM
13 | O=C(CCc1c(-c2ccccc2)[nH]c2c(Br)cccc12)N[C@@H]1C(=O)NC[C@H]1O | < 250 nM | < 250 nM
14 | Cc1ccc(-c2[nH]c3ccccc3c2CCC(=O)N[C@@H]2C(=O)NC[C@H]2O)cc1F | < 250 nM | < 250 nM
15 | O=C(CCc1c(-c2ccc(F)cc2)[nH]c2ccc(C(F)(F)F)cc12)N[C@@H]1C(=O)NC[C@H]1O | < 250 nM | < 250 nM
16 | O=C(CCc1c(-c2ccc(F)cc2)[nH]c2c(F)cccc12)N[C@H]1CCNC1=O | < 250 nM | < 250 nM
17 | O=C(CCc1c(-c2ccc(F)cc2)[nH]c2c(Cl)cccc12)N[C@@H]1C(=O)NC[C@H]1O | < 250 nM | < 250 nM
18 | O=C(CCc1c(-c2ccccc2)[nH]c2c(C(F)(F)F)cccc12)N[C@@H]1C(=O)NC[C@H]1O | > 1000 nM | 250 nM
19 | Cc1ccc(-c2[nH]c3ccccc3c2CCC(=O)N[C@@H]2C(=O)NC[C@H]2O)c(F)c1 | < 250 nM | < 250 nM
20 | Cc1c(F)c(F)cc2c(CCC(=O)N[C@@H]3C(=O)NC[C@H]3O)c(-c3ccccc3)[nH]c12 | < 250 nM | < 250 nM
21 | O=C(CCc1c(-c2ccc(F)cc2)[nH]c2ccc(OCc3ccccc3)cc12)N[C@H]1CCNC1=O | 250 nM | 250 nM
22 | CN(C(=O)CCc1c(-c2ccc(F)cc2)[nH]c2ccc(F)cc12)C1CCNC1=O (stereo not given) | 250 nM | 250 nM
23 | O=C(CCc1c(-c2ccccc2)[nH]c2ccc(F)cc12)N[C@@H]1C(=O)NC[C@H]1O | < 250 nM | < 250 nM
24 | O=C(CCc1c(-c2cccc(F)c2)[nH]c2c(F)cc(F)cc12)N[C@@H]1C(=O)NC[C@H]1O | < 250 nM | < 250 nM
25 | [2H]C([2H])(C(=O)N[C@@H]1C(=O)NC[C@H]1O)C([2H])([2H])c1c(-c2ccc(F)cc2)[nH]c2c(F)cc(F)cc12 | < 250 nM | < 250 nM

Row | Structure (SMILES) | IC50 [1] | IC50 (Apolipoprotein L1)
26 | O=C(CCc1c(-c2ccccc2)[nH]c2c(F)c(F)ccc12)N[C@@H]1C(=O)NC[C@H]1O | < 250 nM | < 250 nM
27 | O=C(CCc1c(-c2ccccc2)[nH]c2cc(F)cc(F)c12)N[C@@H]1C(=O)NC[C@H]1O | < 250 nM | < 250 nM
28 | N#Cc1ccc(-c2[nH]c3ccccc3c2CCC(=O)N[C@@H]2C(=O)NC[C@H]2O)cc1 | < 250 nM | < 250 nM
29 | O=C(CCc1c(-c2ccc(F)cc2)[nH]c2c(Cl)cccc12)N[C@H]1CCNC1=O | < 250 nM | < 250 nM
30 | O=C(CCc1c(-c2ccc(Cl)cc2)[nH]c2ccccc12)N[C@@H]1C(=O)NC[C@H]1O | < 250 nM | < 250 nM
31 | O=C(CCc1c(-c2cc(F)cc(F)c2)[nH]c2ccccc12)N[C@@H]1C(=O)NC[C@H]1O | 250 nM | 250 nM
32 | O=C(CCc1c(-c2ccc(F)cc2)[nH]c2ccc(F)cc12)N[C@@H]1CCNC1=O | 250 nM | 250 nM
33 | Cc1ccc(-c2[nH]c3ccccc3c2CCC(=O)N[C@@H]2C(=O)NC[C@H]2O)cc1 | < 250 nM | < 250 nM
34 | O=C(CCc1c(-c2ccc(F)c(F)c2)[nH]c2ccccc12)N[C@@H]1C(=O)NC[C@H]1O | < 250 nM | < 250 nM
35 | O=C(CCc1c(-c2ccc(F)c(F)c2)[nH]c2c(F)cc(F)cc12)N[C@@H]1C(=O)NC[C@H]1O | < 250 nM | < 250 nM
36 | O=C(CCc1c(-c2ccc(F)cc2)[nH]c2c(F)cccc12)N[C@@H]1C(=O)NC[C@H]1O | < 250 nM | < 250 nM
37 | O=C(CCc1c(-c2ccc(F)cc2)[nH]c2c(F)cc(C(F)(F)F)cc12)N[C@@H]1C(=O)NC[C@H]1O | < 250 nM | < 250 nM
38 | O=C(CCc1c(-c2ccc(F)cc2)[nH]c2ccc(F)cc12)NC1CCNC1=O (stereo not given) | < 250 nM | < 250 nM
39 | O=C(CCc1c(-c2ccc(C(F)F)cc2)[nH]c2ccccc12)N[C@@H]1C(=O)NC[C@H]1O | < 250 nM | < 250 nM
40 | O=C(CCc1c(-c2ccccc2)[nH]c2ccccc12)N[C@@H]1C(=O)NC[C@H]1O | < 250 nM | < 250 nM
41 | O=C(CCc1c(-c2ccccc2)[nH]c2ccc(F)cc12)N[C@H]1CCNC1=O | < 250 nM | < 250 nM
42 | O=C(CCc1c(-c2ccc(OC(F)F)cc2)[nH]c2c(F)cc(F)cc12)N[C@@H]1C(=O)NC[C@H]1O | < 250 nM | < 250 nM
43 | [2H]C(C(=O)N[C@@H]1C(=O)NC[C@H]1O)C([2H])c1c(-c2ccc(F)cc2)[nH]c2c(F)cc(F)cc12 (stereo not given in full) | < 250 nM | < 250 nM
44 | O=C(CCc1c(-c2ccc(F)cc2)[nH]c2c(F)ccc(F)c12)N[C@H]1CCNC1=O | > 1000 nM | > 1000 nM
45 | O=C(CCc1c(-c2ccc(F)cc2)[nH]c2ccc(O)cc12)N[C@H]1CCNC1=O | > 1000 nM | > 1000 nM
46 | Cc1c(F)c(F)cc2c(CCC(=O)N[C@@H]3C(=O)NC[C@H]3O)c(-c3ccc(F)cc3)[nH]c12 | < 250 nM | < 250 nM
47 | O=C(CCc1c(-c2ccc(Cl)c(F)c2)[nH]c2ccccc12)N[C@@H]1C(=O)NC[C@H]1O | < 250 nM | < 250 nM
48 | O=C(CCc1c(-c2ccccc2)[nH]c2cc(F)ccc12)N[C@@H]1C(=O)NC[C@H]1O | < 250 nM | < 250 nM
49 | O=C(CCc1c(-c2ccc(F)cc2)[nH]c2c(OC(F)F)cc(F)cc12)N[C@@H]1C(=O)NC[C@H]1O | 250 nM | < 250 nM
50 | O=C(CCc1c(-c2ccc(F)cc2)[nH]c2c(F)cc(F)cc12)N[C@@H]1C(=O)NC[C@H]1O [INAXAPLIN] | < 250 nM | < 250 nM
